Columns and labels:
[1] = target: T1, full-length human tau (T40) / 12 kD PHF-core tau fragment (Homo sapiens, UniProt P10636); conditions: for inhibition of 12 kD:T40 ratio (in words): IPTG 0-50 μM, thionine and tolonium chloride with 200 μM DTT/ascorbate, chlorpromazine and tacrine without reducing agents
[2] = Extent of reduction of diaminophenothiazines by DTT or ascorbic acid; type: physicochemical; conditions: approx. 500:1 DTT excess, at 120 minutes
[3] = target: T1, full-length human tau (T40) / 12 kD PHF-core tau fragment; assay: cell-based
[4] = in vivo; cited from earlier work

T1 sequence (P10636 1-441 isoform P10636-8): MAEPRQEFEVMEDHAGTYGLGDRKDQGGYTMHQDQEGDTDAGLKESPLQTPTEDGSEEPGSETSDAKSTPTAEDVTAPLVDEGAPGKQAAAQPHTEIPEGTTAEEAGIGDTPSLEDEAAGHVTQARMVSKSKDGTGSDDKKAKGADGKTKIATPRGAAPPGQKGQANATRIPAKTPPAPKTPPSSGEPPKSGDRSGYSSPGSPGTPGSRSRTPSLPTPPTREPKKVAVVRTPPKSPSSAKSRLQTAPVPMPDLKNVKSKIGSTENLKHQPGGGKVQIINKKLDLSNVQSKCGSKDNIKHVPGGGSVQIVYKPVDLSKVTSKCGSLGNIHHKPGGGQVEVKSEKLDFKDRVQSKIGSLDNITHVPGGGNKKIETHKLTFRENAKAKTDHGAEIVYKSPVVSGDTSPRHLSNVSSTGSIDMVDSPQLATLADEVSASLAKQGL

Compound | extent of reduction [2] | Ki [3] | inhibition of 12 kD:T40 ratio (in words) [1] | other results
Nc1c2c(nc3ccccc13)CCCC2 [tacrine] | – | 802 nM | non-inhibitory | –
Cc1cc2nc3ccc(N(C)C)cc3[s+]c2cc1N [tolonium chloride] | – | – | – | half live in blood [4]: approximately 100 minutes
CN(C)CCCN1c2ccccc2Sc2ccc(Cl)cc21 [chlorpromazine] | – | 2120 nM | non-inhibitory | –

More lines, main results first:

extent of reduction [2] | Ki [3] | inhibition of 12 kD:T40 ratio (in words) [1] | Compound | other results
relatively little reduced | – | – | Cc1cc(N(C)C)cc2[s+]c3cc(N(C)C)cc(C)c3nc12 [DMMB, 1,9-Dimethylmethylene Blue] | effect on tau degradation products within the cell ([1]; 1 μM DMMB, with and without IPTG induction): effectively abolished all degradation products; IC50 ([1]; read-out: cellular B50 value, base-line expression of the 12/14 kD species, concentration reducing 12 kD production to 50%): ~100 nM
completely reduced | – | essentially identical inhibition | thionine | toxicity to cells of the assay [1]: toxic; conversion of induced T40 into the 12 kD fragment ([1]; 2 μM thionine (reduced), increasing IPTG): not converted into the 12 kD fragment

Reference: patent US7335505B2, “Materials and methods relating to protein aggregation in neurodegenerative disease” (Wista Laboratories Ltd., priority 2001, dated 2008)
